# Bridge positions count the residues as written; N and C are the ends. Square brackets hold non-standard residues; d marks the D form. Ends that are not written are not given here. cellulose = not defined here; βAla = NCCC(=O)O
# Assays:
# Assay type in all cases: binding
# Parameters in all cases: key: No binding of immunoglobulin for the defined peptide variant, detection negative: 0; Binding of immunoglobulin for the defined peptide variant, detection positive: +
# serum albumin = test: Cellulose-immobilized 13-mer peptide variants incubated with serum albumin (negative control), anti-human IgG-AP detection; settings: blocking buffer without addition, 3 h room temperature
# How it was run: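 SPOT-type 13-mer peptides on cellulose with a (βA)(βA) spacer, blocked in 5% saccharose/4% BSA in T-TBS pH 8.0. Incubated 3 h at RT with human IgG-Fc (1 μg/ml) or human serum/plasma (1:10,000), or with blocking buffer alone as the albumin specificity control. Bound IgG detected with AP-anti-human IgG (1.2 μg/ml) and NBT/BCIP colorimetric development at pH 9.5.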
# [1] = test system: immunoglobulins in human plasma; test: Cellulose-immobilized 13-mer peptide variants incubated with human plasma, anti-human IgG-AP detection; settings: human plasma as sample, diluted 1:10,000 in blocking buffer, 3 h room temperature
# How it was run: (§1)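 Spot membrane, (βA)(βA) spacer; T-TBS pH 8.0 wash, block 5% saccharose/4% BSA. 3 h RT with IgG-Fc 1 μg/ml, serum 1:10,000, or block buffer only (specificity control). 3× wash, AP-anti-human IgG 1.2 μg/ml, NBT/BCIP in pH 9.5 buffer.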
# human IgG-Fc = test: Cellulose-immobilized 13-mer peptide variants incubated with human IgG-Fc, anti-human IgG-AP detection; settings: IgG-Fc 1 μg/ml in blocking buffer, 3 h room temperature
# How it was run: as §1
Result for incubation with serum albumin (immunoglobulin binding detection) (serum albumin),Result for incubation with human plasma (immunoglobulin binding detection) [1],Result for incubation with human IgG-Fc (immunoglobulin binding detection) (human IgG-Fc),Substance
0,+,+,06M: cellulose-bound 13-mer variant DCAWHMGELVWCT-(βA)(βA) (DCAWHMGELVWCT-{βAla-βAla-cellulose}; disulfide 2-12 (inferred); not fully specified (N-terminus); printed as DCAWHMGELVWCT-(βA)(βA); reading uncertain)
0,0,0,11C: cellulose-bound 13-mer variant DCAWHLGELVCCT-(βA)(βA) (DCAWHLGELVCCT-{βAla-βAla-cellulose}; not fully specified (bridges); printed as DCAWHLGELVCCT-(βA)(βA); cysteine pairing not given here; reading uncertain)
0,0,0,01W: cellulose-bound 13-mer variant WCAWHLGELVWCT-(βA)(βA) (WCAWHLGELVWCT-{βAla-βAla-cellulose}; disulfide 2-12 (inferred); reading uncertain; also: printed as WCAWHLGELVWCT-(βA)(βA))
0,0,+,09P: cellulose-bound 13-mer variant DCAWHLGEPVWCT-(βA)(βA) (DCAWHLGEPVWCT-{βAla-βAla-cellulose}; disulfide 2-12 (inferred); reading uncertain; also: printed as DCAWHLGEPVWCT-(βA)(βA))
0,0,0,02H: cellulose-bound 13-mer variant DHAWHLGELVWCT-(βA)(βA) (DHAWHLGELVWCT[βAla][βAla]; not fully specified; printed as DHAWHLGELVWCT-(βA)(βA); also: cellulose-bound)
0,+,+,08M: cellulose-bound 13-mer variant DCAWHLGMLVWCT-(βA)(βA) (DCAWHLGMLVWCT-{βAla-βAla-cellulose}; disulfide 2-12 (inferred); not fully specified (N-terminus); printed as DCAWHLGMLVWCT-(βA)(βA); reading uncertain)
0,0,0,02W: cellulose-bound 13-mer variant DWAWHLGELVWCT-(βA)(βA) (DWAWHLGELVWCT[βAla][βAla]; not fully specified; printed as DWAWHLGELVWCT-(βA)(βA); also: cellulose-bound)
0,0,0,04G: cellulose-bound 13-mer variant DCAGHLGELVWCT-(βA)(βA) (DCAGHLGELVWCT[βAla][βAla]; disulfide 2-12 (inferred); also: cellulose-bound)
0,+,+,09R: cellulose-bound 13-mer variant DCAWHLGERVWCT-(βA)(βA) (DCAWHLGERVWCT-{βAla-βAla-cellulose}; disulfide 2-12 (inferred); reading uncertain; also: printed as DCAWHLGERVWCT-(βA)(βA))
0,0,0,03R: cellulose-bound 13-mer variant DCRWHLGELVWCT-(βA)(βA) (DCRWHLGELVWCT-{βAla-βAla-cellulose}; disulfide 2-12 (inferred); reading uncertain; also: printed as DCRWHLGELVWCT-(βA)(βA))
0,0,0,03C: cellulose-bound 13-mer variant DCCWHLGELVWCT-(βA)(βA) (DCCWHLGELVWCT-{βAla-βAla-cellulose}; disulfide (positions not given here); not fully specified; printed as DCCWHLGELVWCT-(βA)(βA); reading uncertain)
0,0,0,04A: cellulose-bound 13-mer variant DCAAHLGELVWCT-(βA)(βA) (DCAAHLGELVWCT-{βAla-βAla-cellulose}; disulfide 2-12 (inferred); reading uncertain; also: printed as DCAAHLGELVWCT-(βA)(βA))
0,0,0,08G: cellulose-bound 13-mer variant DCAWHLGGLVWCT-(βA)(βA) (DCAWHLGGLVWCT-{βAla-βAla-cellulose}; disulfide 2-12 (inferred); not fully specified (N-terminus); printed as DCAWHLGGLVWCT-(βA)(βA); reading uncertain)
0,0,+,06T: cellulose-bound 13-mer variant DCAWHTGELVWCT-(βA)(βA) (DCAWHTGELVWCT-{βAla-βAla-cellulose}; disulfide 2-12 (inferred); not fully specified (N-terminus); printed as DCAWHTGELVWCT-(βA)(βA); reading uncertain)
0,0,0,12H: cellulose-bound 13-mer variant DCAWHLGELVWHT-(βA)(βA) (DCAWHLGELVWHT-{βAla-βAla-cellulose}; not fully specified; printed as DCAWHLGELVWHT-(βA)(βA); reading uncertain)
0,0,+,01S: cellulose-bound 13-mer variant SCAWHLGELVWCT-(βA)(βA) (SCAWHLGELVWCT-{βAla-βAla-cellulose}; disulfide 2-12 (inferred); reading uncertain; also: printed as SCAWHLGELVWCT-(βA)(βA))
